In US8029818B2, “Method of blunting the postprandial glycemic response to a meal” (Abbott Laboratories, priority 2001, dated 2011):

Tests used:
[1] = tested on: healthy nondiabetic adult subjects; assay: Subjective gastrointestinal tolerance questionnaire, 24-h period after the test material; format: in vivo, human; conditions: for Intensity of Cramping / Intensity of Distention / Intensity of Flatulence / Intensity of Nausea: 100-mm line scale score (0 Absent, 100 Severe); for Intensity of Cramping / Intensity of Distention / Intensity of Flatulence / Intensity of Nausea / Frequency of Cramping / Frequency of Distention / Frequency of Flatulence / Frequency of Nausea: Mean ± SEM, n=31; for Frequency of Cramping / Frequency of Distention / Frequency of Flatulence / Frequency of Nausea: 100-mm line scale score (0 Usual, 100 More than usual)
Description: (§1) The primary objective of this study was to determine the effects of the timing of fructose ingestion on the postprandial glycemic response of healthy nondiabetic adult subjects to instant mashed potatoes, a rapidly digested starch. A secondary objective was to evaluate the effects of an acute challenge of 50 g of carbohydrate from instant mashed potatoes ±10 g fructose on subjective gastrointestinal tolerance.
Using a questionnaire, subjects were asked to report the frequency and intensity of the following symptoms: nausea, cramping, distention, and flatulence for the 24-h period immediately following consumption of the test material. Intensity and frequency was set to a 100-mm line scale (0 representing “Absent” and 100 “Severe” and 0 representing “Usual” and 100 “More than usual,” respectively). Subjects placed a single perpendicular slash mark across the 100 mm horizontal line to indicate their scores for each of these variables of frequency and intensity. A score of 5 or less was considered not physiologically meaningful.

[2] = tested on: healthy nondiabetic adult subjects; assay: 2-hour meal tolerance test (50 g carbohydrate from instant mashed potatoes ±10 g fructose), postprandial glycemic response; format: in vivo, human; conditions: for Incremental AUC / Incremental peak glucose / Time to peak: Mean ± SEM; for Glycemic index: incremental AUC for treatment/control (no supplemental fructose) × 100
Description: as §1
The study followed a double-blind crossover design in which subjects participated in four 2-hour meal tolerance tests on separate occasions. Subjects were randomly assigned to one of 24 treatment sequences. After an overnight fast, subjects consumed 50 g carbohydrate from instant mashed potatoes with or without 10 g supplemental fructose. The effects of the timing of fructose ingestion were evaluated by having the subjects consume 10 g fructose 60, 30, or 0 min before the instant mashed potato meal. A control meal tolerance test was given where subjects received no fructose.
To ensure that subjects had similar glycogen stores on the 4 test days, subjects were instructed to consume a high carbohydrate diet (minimum 150 g carbohydrate per day) for 3 days before each meal tolerance test and were also asked to avoid exercise 24 hours before the experiment. On the evening before each meal tolerance test, all subjects consumed a low-residue dinner consisting of one 8 fl oz (237 ml) can of chocolate Ensure Plus® (Ross Laboratories, Columbus, Ohio) with additional Honey Graham Crunch Ensure® Bars (Ross Laboratories, Columbus, Ohio) to provide one-third of each subject's individual daily caloric requirement as estimated by the Harris-Benedict equation multiplied by an activity factor of 1.3. Subjects were instructed to fast overnight, following their low-residue evening meal, during which they were only allowed to consume water and smoking was prohibited. On the morning of each meal tolerance test, body weight, body temperature, pulse rate and blood pressure were measured by standard procedures. A fasting finger-prick capillary blood sample was obtained and analyzed utilizing two methods of glucose determination. One sample was immediately analyzed for glucose with an Accu-Chek Blood Glucose Monitoring System (Roche Diagnostics, Indianapolis, Ind.). An additional sample was collected into a capillary tube containing EDTA for whole blood glucose analysis (within 30 min of collection) using a YSI analyzer (model YSI 2300 STAT PLUS, Yellow Springs Instruments, Yellow Springs, Ohio). This fasting sample was considered the −60 min time point. According to randomization, subjects then consumed 10 g fructose at −60 min, −30, or 0 min or no supplemental fructose (30 ml water at −60 min). The test meal (50 g carbohydrate from instant mashed potatoes) was given at time 0 and consumed within 10 min. Additional finger-prick capillary blood was obtained at −30, 0, 15, 30, 45, 60, 90 and 120 min postprandial. Subjects were allowed 8 fl oz water (240 ml) during each 2-hour test. Immediately following each trial, body temperature, pulse rate and blood pressure were measured. Subjects returned within 7 days for repeat analysis with the appropriate crossover treatment.
The products tested were instant mashed potatoes (Hungry Jack Mashed Potatoes; Pillsbury Company) and purified crystalline fructose (Wild Oats Market grocery; Columbus, Ohio).
The primary variable for this study was incremental peak plasma glucose response. Secondary variables included incremental area under the curve, time to peak glucose, glycemic index, and subjective gastrointestinal tolerance factors. Exploratory variables included absolute and incremental plasma glucose response at −30, 0, 15, 30, 45, 60, 90, and 120 min postprandial.
A total of 31 healthy nondiabetic (fasting plasma glucose value less than 110 mg/dl; American Diabetes Association, 1997) volunteers (thirteen men and eighteen women) were recruited. […]

[3] = tested on: rats; conditions: fructose intake levels greater than 17% of total Kcal; cited from earlier work
[4] = tested on: humans; conditions: fructose intake levels greater than 17% of total Kcal; cited from earlier work
[5] = 10 g fructose 60 or 30 min before the meal tolerance test vs fructose with the meal or no supplemental fructose, P<0.05
[6] = Accu-Chek values, 10 g fructose at 0 min (with test meal), n=31
[7] = Accu-Chek values, 10 g fructose at −30 min relative to test meal, n=31
[8] = Accu-Chek values, 10 g fructose at −60 min relative to test meal, n=31
[9] = YSI values (whole blood), 10 g fructose at 0 min (with test meal), n=28
[10] = YSI values (whole blood), 10 g fructose at −30 min relative to test meal, n=25
[11] = YSI values (whole blood), 10 g fructose at −60 min relative to test meal, n=26

O=C(CO)[C@@H](O)[C@H](O)[C@H](O)CO [fructose]
Intensity of Cramping ([1]; 10 g fructose at 0 min): 3 ± 1.9
Intensity of Distention ([1]; 10 g fructose at 0 min): 1 ± 0.4
Intensity of Flatulence ([1]; 10 g fructose at 0 min): 1 ± 0.5
Intensity of Nausea ([1]; 10 g fructose at 0 min): 0 ± 0.2
Intensity of Cramping ([1]; 10 g fructose at −30 min): 2 ± 1.6
Intensity of Distention ([1]; 10 g fructose at −30 min): 3 ± 1.5
Intensity of Flatulence ([1]; 10 g fructose at −30 min): 5 ± 1.7
Intensity of Nausea ([1]; 10 g fructose at −30 min): 1 ± 0.4
Intensity of Cramping ([1]; 10 g fructose at −60 min): 1 ± 0.3
Intensity of Distention ([1]; 10 g fructose at −60 min): 1 ± 1.0
Intensity of Flatulence ([1]; 10 g fructose at −60 min): 3 ± 1.5
Intensity of Nausea ([1]; 10 g fructose at −60 min): 1 ± 0.3
Frequency of Cramping ([1]; 10 g fructose at 0 min): 7 ± 4.1
Frequency of Distention ([1]; 10 g fructose at 0 min): 1 ± 0.6
Frequency of Flatulence ([1]; 10 g fructose at 0 min): 3 ± 1.3
Frequency of Nausea ([1]; 10 g fructose at 0 min): 1 ± 0.2
Frequency of Cramping ([1]; 10 g fructose at −30 min): 1 ± 0.2
Frequency of Distention ([1]; 10 g fructose at −30 min): 4 ± 1.9
Frequency of Flatulence ([1]; 10 g fructose at −30 min): 7 ± 2.9
Frequency of Nausea ([1]; 10 g fructose at −30 min): 1 ± 0.2
Frequency of Cramping ([1]; 10 g fructose at −60 min): 4 ± 3.2
Frequency of Distention ([1]; 10 g fructose at −60 min): 1 ± 0.3
Frequency of Flatulence ([1]; 10 g fructose at −60 min): 3 ± 1.7
Frequency of Nausea ([1]; 10 g fructose at −60 min): 1 ± 0.3
gastrointestinal symptoms (intensity and frequency of nausea, cramping, distention and flatulence) ([1]; all treatments: 50 g carbohydrate from instant mashed potatoes with or without 10 g supplemental fructose): Minimal effects
Peak incremental change from baseline for plasma glucose [2, 5]: lower
incremental area under the curve for plasma glucose [2, 5]: lower
incremental change from baseline in plasma glucose at the 0 min time point ([2]; 10 g fructose at −30 min compared to the 0-min time fructose ingestion treatment, P<0.05): increased
incremental change from baseline in plasma glucose at the −30 min time point ([2]; 10 g fructose at −60 min compared to the other treatments, P<0.05): increased
postprandial glycemic response ([2]; 10 g fructose given 30 or 60 min before the meal tolerance test): reduced the postprandial glycemic response
postprandial glycemic response ([2]; 10 g supplemental fructose given with the meal glucose tolerance test, compared to the control): had no effect
Incremental AUC [2, 6]: 3059 ± 246 mg·min/dL
Incremental peak glucose [2, 6]: 65.7 ± 3.2 mg/dL
Time to peak [2, 6]: 38 ± 1.9 min
Glycemic index ([2]; Accu-Chek values, 10 g fructose at 0 min, n=31): 98.8 ± 6.2
Glycemic index ([2]; Accu-Chek values, 10 g fructose at −30 min, n=31): 80.2 ± 8.5
Incremental AUC [2, 7]: 2329 ± 210 mg·min/dL
Incremental peak glucose [2, 7]: 49.5 ± 2.5 mg/dL
Time to peak [2, 7]: 36 ± 2.0 min
Glycemic index ([2]; Accu-Chek values, 10 g fructose at −60 min, n=31): 84.1 ± 6.6
Incremental AUC [2, 8]: 2398 ± 142 mg·min/dL
Incremental peak glucose [2, 8]: 51.6 ± 2.2 mg/dL
Time to peak [2, 8]: 35 ± 1.3 min
Incremental AUC [2, 9]: 2592 ± 213 mg·min/dL
Incremental peak glucose [2, 9]: 56.7 ± 3.0 mg/dL
Time to peak [2, 9]: 37 ± 1.8 min
Incremental AUC [2, 10]: 1880 ± 189 mg·min/dL
Incremental peak glucose [2, 10]: 39.9 ± 2.6 mg/dL
Time to peak [2, 10]: 33 ± 1.5 min
Incremental AUC [2, 11]: 2094 ± 132 mg·min/dL
Incremental peak glucose [2, 11]: 44.4 ± 2.0 mg/dL
Time to peak [2, 11]: 33 ± 1.2 min
Glycemic index ([2]; YSI values, 10 g fructose at 0 min, n=28): 107.1 ± 11.1
Glycemic index ([2]; YSI values, 10 g fructose at −30 min, n=25): 82.5 ± 10.6
Glycemic index ([2]; YSI values, 10 g fructose at −60 min, n=26): 89.6 ± 7.5
Time to peak glucose ([2]; between treatments (fructose at −60, −30, 0 min or none), P>0.05): did not differ
postprandial incremental change from baseline in plasma glucose at 90 and 120 min ([2]; between treatments, P>0.05): did not differ
incremental change from baseline in plasma glucose at 15 min ([2]; fructose at −30 min compared to the control and 0-min time fructose ingestion treatment, P<0.05): higher
incremental change from baseline in plasma glucose over the 30, 45 and 60 min time points ([2]; fructose −60 or −30 min relative to the meal tolerance test): tended to be lower
effect on blood lipids [3]: cause hypertriacylglycerolemia and hypercholesterolemia
effect on blood lipids [4]: cause hypertriacylglycerolemia and hypercholesterolemia
